From ChEMBL document CHEMBL5223112, “Design, synthesis, and structure-activity relationship of novel RIPK2 inhibitors” (Bioorg Med Chem Lett, 2022)
Each block holds one molecule with its values, some of them ahead of it.

How the values were obtained:
[1] = target: Receptor-interacting serine/threonine-protein kinase 2 (Homo sapiens, UniProt O43353); experiment: Binding affinity to RIPK2 (unknown origin) assessed as dissociation constant by kinomescan assay
CYP2C9 = CYP2C9 (Homo sapiens, UniProt P11712); experiment: Inhibition of CYP2C9 (unknown origin) at 10 uM relative to control; format: ADME
[2] = Metabolic stability in rat liver microsomes assessed as half life; format: ADME
[3] = Metabolic stability in dog liver microsomes assessed as intrinsic clearance; format: ADME, Canis lupus familiaris; conditions: read-out: CLH
[4] = Metabolic stability in rat liver microsomes assessed as intrinsic clearance; format: ADME; conditions: read-out: CLH
CYP3A4 [5] = target: T1, CYP3A4 (Homo sapiens, UniProt P08684); experiment: Inhibition of CYP3A4 (unknown origin) at 10 uM using testosterone as substrate relative to control; format: ADME; conditions: probe testosterone
[6] = Metabolic stability in mouse liver microsomes assessed as half life; format: ADME
[7] = Metabolic stability in human liver microsomes assessed as half life; format: ADME
[8] = Metabolic stability in monkey liver microsomes assessed as intrinsic clearance; format: ADME, Macaca mulatta; conditions: rhesus monkey, read-out: CLH
CYP2C19 = CYP2C19 (Homo sapiens, UniProt P33261); experiment: Inhibition of CYP2C19 (unknown origin) at 10 uM relative to control; format: ADME
[9] = Metabolic stability in mouse liver microsomes assessed as intrinsic clearance; format: ADME; conditions: read-out: CLH
[10] = Metabolic stability in dog liver microsomes assessed as half life; format: ADME, Canis lupus familiaris
[11] = Metabolic stability in human liver microsomes assessed as intrinsic clearance; format: ADME; conditions: read-out: CLH
CYP3A4 [12] = target: T1, CYP3A4; experiment: Inhibition of CYP3A4 (unknown origin) at 10 uM using midazolam as substrate relative to control; format: ADME; conditions: probe midazolam
CYP2D6 = CYP2D6 (Homo sapiens, UniProt P10635); experiment: Inhibition of CYP2D6 (unknown origin) at 10 uM relative to control; format: ADME
[13] = Metabolic stability in monkey liver microsomes assessed as half life; format: ADME, Macaca mulatta; conditions: rhesus monkey
CYP1A2 = target: T2, CYP1A2 (Homo sapiens, UniProt P05177); experiment: Inhibition of CYP1A2 (unknown origin) at 10 uM relative to control; format: ADME
T2 sequence (P05177 whole entry): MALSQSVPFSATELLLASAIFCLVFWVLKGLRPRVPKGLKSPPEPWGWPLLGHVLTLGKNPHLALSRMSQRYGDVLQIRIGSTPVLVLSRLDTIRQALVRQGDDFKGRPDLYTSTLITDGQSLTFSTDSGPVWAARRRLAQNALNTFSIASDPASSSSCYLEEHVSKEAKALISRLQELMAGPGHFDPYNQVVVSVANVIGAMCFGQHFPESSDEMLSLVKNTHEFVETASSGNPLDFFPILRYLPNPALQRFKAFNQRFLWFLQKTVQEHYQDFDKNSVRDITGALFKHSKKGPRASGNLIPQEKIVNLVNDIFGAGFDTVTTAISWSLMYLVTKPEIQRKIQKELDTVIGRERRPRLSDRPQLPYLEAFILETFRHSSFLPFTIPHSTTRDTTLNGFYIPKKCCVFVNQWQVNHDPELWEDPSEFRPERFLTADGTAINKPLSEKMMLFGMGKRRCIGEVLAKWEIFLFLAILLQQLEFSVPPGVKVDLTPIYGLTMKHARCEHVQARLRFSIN

[14] = target: Voltage-gated inwardly rectifying potassium channel KCNH2 (Homo sapiens, UniProt Q12809); experiment: Inhibition of hERG; format: toxicity
[15] = target: Receptor-interacting serine/threonine-protein kinase 3 (Homo sapiens, UniProt Q9Y572); experiment: Binding affinity to RIPK3 (unknown origin) assessed as dissociation constant by kinomescan assay
[16] = target: T3, Receptor-interacting serine/threonine-protein kinase 1 (Homo sapiens, UniProt Q13546); experiment: Binding affinity to RIPK1 (unknown origin) assessed as dissociation constant by kinomescan assay
T3 sequence (Q13546 whole entry): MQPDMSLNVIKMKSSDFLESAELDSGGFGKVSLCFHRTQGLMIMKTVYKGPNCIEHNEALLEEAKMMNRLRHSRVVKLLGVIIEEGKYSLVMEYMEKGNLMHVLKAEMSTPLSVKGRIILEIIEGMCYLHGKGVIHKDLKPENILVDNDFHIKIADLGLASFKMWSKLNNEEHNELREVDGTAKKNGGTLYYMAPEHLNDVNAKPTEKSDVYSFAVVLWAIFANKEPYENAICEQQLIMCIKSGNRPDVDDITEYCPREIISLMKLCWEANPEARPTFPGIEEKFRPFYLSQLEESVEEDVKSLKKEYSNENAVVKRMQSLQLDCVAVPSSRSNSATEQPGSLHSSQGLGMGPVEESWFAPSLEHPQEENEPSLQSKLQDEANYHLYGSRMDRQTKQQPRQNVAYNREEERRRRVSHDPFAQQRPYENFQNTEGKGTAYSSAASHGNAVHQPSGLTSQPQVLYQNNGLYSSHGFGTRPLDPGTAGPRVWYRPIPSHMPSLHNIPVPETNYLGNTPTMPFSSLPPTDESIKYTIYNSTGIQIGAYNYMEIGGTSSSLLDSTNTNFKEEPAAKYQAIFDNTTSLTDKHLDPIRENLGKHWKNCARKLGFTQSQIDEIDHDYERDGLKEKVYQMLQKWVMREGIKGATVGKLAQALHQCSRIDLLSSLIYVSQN

THP-1 = experiment: Antiinflammatory activity in MDP-stimulated IL-8 production in human THP-1 cells pretreated for 2 hrs followed by MDP stimulation for 6 hrs; format: functional, cell-based

Chain of CYP2C19 (P33261 whole entry): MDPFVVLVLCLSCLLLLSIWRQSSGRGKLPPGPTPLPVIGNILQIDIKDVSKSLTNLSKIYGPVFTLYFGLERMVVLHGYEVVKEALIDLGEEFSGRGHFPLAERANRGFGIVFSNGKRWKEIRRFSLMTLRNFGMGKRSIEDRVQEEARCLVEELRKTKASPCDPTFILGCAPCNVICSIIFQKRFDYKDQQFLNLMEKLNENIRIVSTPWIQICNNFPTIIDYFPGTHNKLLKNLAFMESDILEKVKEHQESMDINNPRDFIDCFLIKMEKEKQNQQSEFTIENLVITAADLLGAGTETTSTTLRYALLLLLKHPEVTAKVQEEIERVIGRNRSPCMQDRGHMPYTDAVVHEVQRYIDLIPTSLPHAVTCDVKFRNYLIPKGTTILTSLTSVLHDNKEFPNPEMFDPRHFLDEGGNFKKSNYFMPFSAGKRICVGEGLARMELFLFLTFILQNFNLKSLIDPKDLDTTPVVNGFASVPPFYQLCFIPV
Chain of CYP2D6 (P10635 whole entry): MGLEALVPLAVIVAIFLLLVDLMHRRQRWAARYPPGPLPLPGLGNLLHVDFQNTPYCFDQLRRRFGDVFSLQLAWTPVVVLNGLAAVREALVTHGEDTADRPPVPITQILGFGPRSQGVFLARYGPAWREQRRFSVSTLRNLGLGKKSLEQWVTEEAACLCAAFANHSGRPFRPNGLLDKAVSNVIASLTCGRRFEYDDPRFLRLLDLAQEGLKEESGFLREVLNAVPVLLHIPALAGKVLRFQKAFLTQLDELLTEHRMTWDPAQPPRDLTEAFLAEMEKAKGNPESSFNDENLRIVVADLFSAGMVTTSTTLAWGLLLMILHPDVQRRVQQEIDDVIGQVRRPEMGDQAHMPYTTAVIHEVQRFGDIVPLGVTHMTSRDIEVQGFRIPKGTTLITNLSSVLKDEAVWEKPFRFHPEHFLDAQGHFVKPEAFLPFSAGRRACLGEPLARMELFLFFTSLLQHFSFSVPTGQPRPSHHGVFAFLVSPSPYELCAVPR
Chain of CYP2C9 (P11712 whole entry): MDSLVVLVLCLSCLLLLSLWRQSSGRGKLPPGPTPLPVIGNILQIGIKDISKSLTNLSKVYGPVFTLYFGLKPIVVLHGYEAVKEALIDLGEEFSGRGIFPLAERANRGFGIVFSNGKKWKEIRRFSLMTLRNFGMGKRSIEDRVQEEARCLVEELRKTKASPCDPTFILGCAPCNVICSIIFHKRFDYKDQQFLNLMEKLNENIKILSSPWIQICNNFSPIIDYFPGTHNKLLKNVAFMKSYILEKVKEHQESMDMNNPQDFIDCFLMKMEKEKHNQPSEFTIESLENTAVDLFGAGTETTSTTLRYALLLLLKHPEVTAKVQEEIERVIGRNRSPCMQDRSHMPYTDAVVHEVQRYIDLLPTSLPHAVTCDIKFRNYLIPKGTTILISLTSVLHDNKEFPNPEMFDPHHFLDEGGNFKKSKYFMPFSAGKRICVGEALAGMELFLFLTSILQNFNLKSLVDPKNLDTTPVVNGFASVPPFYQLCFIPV
T1 sequence (P08684 whole entry): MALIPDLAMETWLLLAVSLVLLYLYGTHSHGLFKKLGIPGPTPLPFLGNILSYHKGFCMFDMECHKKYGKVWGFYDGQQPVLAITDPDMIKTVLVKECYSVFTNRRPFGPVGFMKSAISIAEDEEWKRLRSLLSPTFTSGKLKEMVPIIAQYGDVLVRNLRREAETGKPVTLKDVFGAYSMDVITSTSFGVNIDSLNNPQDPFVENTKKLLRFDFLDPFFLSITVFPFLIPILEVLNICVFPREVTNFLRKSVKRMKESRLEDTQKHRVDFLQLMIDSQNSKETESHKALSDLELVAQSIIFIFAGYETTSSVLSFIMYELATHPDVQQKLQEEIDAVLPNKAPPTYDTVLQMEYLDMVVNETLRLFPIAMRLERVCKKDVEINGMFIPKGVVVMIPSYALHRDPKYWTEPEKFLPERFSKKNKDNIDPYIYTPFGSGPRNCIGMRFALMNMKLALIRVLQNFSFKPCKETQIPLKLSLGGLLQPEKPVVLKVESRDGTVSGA
Chain of Receptor-interacting serine/threonine-protein kinase 2 (O43353 whole entry): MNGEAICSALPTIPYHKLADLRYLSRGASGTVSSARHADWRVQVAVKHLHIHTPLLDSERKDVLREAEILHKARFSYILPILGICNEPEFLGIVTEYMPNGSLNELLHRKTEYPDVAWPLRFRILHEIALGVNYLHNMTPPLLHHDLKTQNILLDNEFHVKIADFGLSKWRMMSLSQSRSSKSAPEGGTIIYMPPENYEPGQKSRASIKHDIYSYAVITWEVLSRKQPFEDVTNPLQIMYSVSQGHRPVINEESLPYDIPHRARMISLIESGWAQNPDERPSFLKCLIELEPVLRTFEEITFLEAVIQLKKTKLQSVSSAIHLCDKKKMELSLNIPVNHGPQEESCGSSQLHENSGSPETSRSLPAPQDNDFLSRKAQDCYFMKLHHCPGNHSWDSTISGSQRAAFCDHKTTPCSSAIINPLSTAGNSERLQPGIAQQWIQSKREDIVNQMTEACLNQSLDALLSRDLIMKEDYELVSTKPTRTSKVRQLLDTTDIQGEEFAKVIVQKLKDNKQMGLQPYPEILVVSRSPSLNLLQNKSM
Chain of Receptor-interacting serine/threonine-protein kinase 3 (Q9Y572 whole entry): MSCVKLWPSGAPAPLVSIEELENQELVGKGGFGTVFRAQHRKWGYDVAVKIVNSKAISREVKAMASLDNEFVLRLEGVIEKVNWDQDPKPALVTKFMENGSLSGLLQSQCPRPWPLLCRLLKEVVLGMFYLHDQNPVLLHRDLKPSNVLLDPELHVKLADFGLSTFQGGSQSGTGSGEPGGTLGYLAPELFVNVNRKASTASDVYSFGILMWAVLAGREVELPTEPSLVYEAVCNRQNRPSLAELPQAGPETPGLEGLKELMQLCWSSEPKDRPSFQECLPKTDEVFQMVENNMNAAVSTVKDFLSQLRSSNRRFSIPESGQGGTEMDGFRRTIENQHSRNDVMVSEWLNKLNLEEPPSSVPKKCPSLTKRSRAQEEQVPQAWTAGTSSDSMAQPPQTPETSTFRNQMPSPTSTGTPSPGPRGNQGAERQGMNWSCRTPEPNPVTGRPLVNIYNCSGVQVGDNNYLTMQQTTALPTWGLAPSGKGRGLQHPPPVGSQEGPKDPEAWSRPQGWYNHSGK
Chain of Voltage-gated inwardly rectifying potassium channel KCNH2 (Q12809 whole entry): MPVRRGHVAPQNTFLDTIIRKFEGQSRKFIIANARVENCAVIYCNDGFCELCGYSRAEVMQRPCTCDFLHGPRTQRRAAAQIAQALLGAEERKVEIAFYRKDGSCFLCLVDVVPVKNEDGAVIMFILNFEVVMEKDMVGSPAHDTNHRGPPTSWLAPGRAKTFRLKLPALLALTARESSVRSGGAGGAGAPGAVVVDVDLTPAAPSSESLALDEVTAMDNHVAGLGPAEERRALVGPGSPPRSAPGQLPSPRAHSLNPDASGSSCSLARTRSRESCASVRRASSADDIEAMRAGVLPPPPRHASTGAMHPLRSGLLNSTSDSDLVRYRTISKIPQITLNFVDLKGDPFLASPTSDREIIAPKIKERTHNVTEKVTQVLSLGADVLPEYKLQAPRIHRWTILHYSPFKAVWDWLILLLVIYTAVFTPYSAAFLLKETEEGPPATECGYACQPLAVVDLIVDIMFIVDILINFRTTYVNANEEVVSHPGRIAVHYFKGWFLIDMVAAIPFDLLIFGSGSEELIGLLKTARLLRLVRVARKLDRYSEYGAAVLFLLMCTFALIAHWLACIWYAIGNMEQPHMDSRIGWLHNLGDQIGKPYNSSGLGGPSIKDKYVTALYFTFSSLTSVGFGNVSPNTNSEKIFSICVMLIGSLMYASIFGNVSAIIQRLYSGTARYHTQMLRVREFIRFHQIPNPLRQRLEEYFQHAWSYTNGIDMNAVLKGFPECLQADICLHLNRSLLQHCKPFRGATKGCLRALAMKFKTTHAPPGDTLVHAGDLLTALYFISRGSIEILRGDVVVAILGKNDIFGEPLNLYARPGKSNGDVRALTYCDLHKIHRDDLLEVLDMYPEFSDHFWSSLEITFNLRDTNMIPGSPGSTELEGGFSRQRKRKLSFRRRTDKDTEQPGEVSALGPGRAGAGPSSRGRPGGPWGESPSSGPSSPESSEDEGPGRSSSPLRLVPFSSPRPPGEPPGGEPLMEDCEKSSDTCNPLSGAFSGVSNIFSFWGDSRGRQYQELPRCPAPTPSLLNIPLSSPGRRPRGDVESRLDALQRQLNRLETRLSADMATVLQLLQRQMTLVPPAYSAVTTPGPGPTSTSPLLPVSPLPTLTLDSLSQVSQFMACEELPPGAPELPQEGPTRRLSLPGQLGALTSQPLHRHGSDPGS

Kd [1]: 27 nM
SMILES: COC1=CS(=O)(=O)c2cc3c(Nc4ccc5scnc5c4)ncnc3cc21

Kd [1]: 14 nM
SMILES: O=S1(=O)C=C(C2CC2)c2cc3ncnc(Nc4cc(O)ccc4F)c3cc21

Kd [1]: 545 nM
SMILES: O=S1(=O)C=C(c2ccc(F)cc2)c2cc3ncnc(Nc4ccc5scnc5c4)c3cc21

Kd [1]: 109 nM
SMILES: O=S1(=O)C=C(c2ccccc2)c2cc3ncnc(Nc4ccc5scnc5c4)c3cc21

Kd [1]: 24 nM
SMILES: CCOC1=C(C)S(=O)(=O)c2cc3c(Nc4ccc5scnc5c4)ncnc3cc21

inhibition at 10 µM (CYP2C9): -1.42%
half-life [2]: 59 min
CLint scaled [3]: 749 mL/min/kg
Kd [1]: 8.2 nM
CLint scaled [4]: 42.1 mL/min/kg
inhibition at 10 µM (CYP3A4 [5]): 6.88%
half-life [6]: 23.7 min
half-life [7]: 53 min
CLint scaled [8]: 97 mL/min/kg
inhibition at 10 µM (CYP2C19): 11.5%
CLint scaled [9]: 230 mL/min/kg
half-life [10]: 4.61 min
CLint scaled [11]: 32.8 mL/min/kg
inhibition at 10 µM (CYP3A4 [12]): -3.32%
inhibition at 10 µM (CYP2D6): -15.7%
half-life [13]: 20.9 min
inhibition at 10 µM (CYP1A2): 14.9%
SMILES: CC1=C(C)S(=O)(=O)c2cc3c(Nc4ccc5scnc5c4)ncnc3cc21

Kd [1]: 10 nM
SMILES: O=S1(=O)C=C(C2CC2)c2cc3ncnc(Nc4ccc5nn[nH]c5c4)c3cc21

Kd [1]: 10 nM
SMILES: O=S1(=O)C=C(C2CC2)c2cc3ncnc(Nc4n[nH]c5ccc(F)cc45)c3cc21

Kd [1]: 10 nM
SMILES: Cc1[nH]nc(Nc2ncnc3cc4c(cc23)S(=O)(=O)C=C4C2CC2)c1C

Kd [1]: 70 nM
SMILES: Cc1ccc(O)cc1Nc1ncnc2cc3c(cc12)S(=O)(=O)C=C3C1CC1

Kd [1]: 325 nM
SMILES: O=S1(=O)C=C(C2CC2)c2cc3ncnc(Nc4ccc5nc[nH]c5c4)c3cc21

SMILES: CCOC1=CS(=O)(=O)c2cc3c(Nc4ccc5scnc5c4)ncnc3cc21
inhibition at 10 µM (CYP2C9): 10.7%
half-life [2]: 142 min
IC50 [14]: > 10000 nM
Kd [15]: 43 nM
CLint scaled [3]: 133 mL/min/kg
Kd [1]: 5.9 nM
CLint scaled [4]: 17.5 mL/min/kg
inhibition at 10 µM (CYP3A4 [5]): -0.93%
half-life [6]: 62.7 min
half-life [7]: 189 min
Kd [16]: > 30000 nM
IC50 (THP-1): 1.99 nM
CLint scaled [8]: 53.3 mL/min/kg
inhibition at 10 µM (CYP2C19): 16.6%
CLint scaled [9]: 87 mL/min/kg
half-life [10]: 25.9 min
CLint scaled [11]: 9.19 mL/min/kg
inhibition at 10 µM (CYP3A4 [12]): 0%
inhibition at 10 µM (CYP2D6): -23.2%
half-life [13]: 38 min
inhibition at 10 µM (CYP1A2): 18.1%

Kd [1]: 685 nM
SMILES: CC1=Cc2cc3nc(C)nc(Nc4ccc5scnc5c4)c3cc2S1(=O)=O

Kd [1]: 1200 nM
SMILES: O=S1(=O)C=C(C2CC2)c2cc3ncnc(Nc4ccc5cc[nH]c5c4)c3cc21

inhibition at 10 µM (CYP2C9): 11.9%
half-life [2]: 61 min
CLint scaled [3]: 320 mL/min/kg
Kd [1]: 3.3 nM
CLint scaled [4]: 40.8 mL/min/kg
inhibition at 10 µM (CYP3A4 [5]): 14.3%
half-life [6]: 15.9 min
half-life [7]: 64.3 min
CLint scaled [8]: 71 mL/min/kg
inhibition at 10 µM (CYP2C19): 40.6%
CLint scaled [9]: 344 mL/min/kg
half-life [10]: 10.8 min
CLint scaled [11]: 27 mL/min/kg
inhibition at 10 µM (CYP3A4 [12]): 14.9%
inhibition at 10 µM (CYP2D6): -13.6%
half-life [13]: 28.5 min
inhibition at 10 µM (CYP1A2): 19.9%
SMILES: O=S1(=O)C=C(C2CC2)c2cc3ncnc(Nc4ccc5scnc5c4)c3cc21

Kd [1]: 14 nM
SMILES: CC1=CS(=O)(=O)c2cc3c(Nc4ccc5scnc5c4)ncnc3cc21

Kd [1]: 55 nM
SMILES: CC1=Cc2cc3ncnc(Nc4ccc5scnc5c4)c3cc2S1(=O)=O

Kd [1]: 0.78 nM
IC50 (THP-1): 1.34 nM
SMILES: CC(C)(C)S(=O)(=O)c1cc2c(Nc3ccc4scnc4c3)ncnc2cc1OCCOP(=O)(O)O
